Measurements as given in publication PMC4724290 (Synapse (New York, N.Y.), 2015).
Values joined by “and” are separate entries in the source; they are usually repeats but may differ in a detail not shown here. Identical values can stand only once. “Also recorded” adds a separate entry of the source. Counter-ions that a name gives are not always drawn. Like-named read-outs stand apart in the source and are kept apart here.

Tests used:
[1] = molecular target: T1, σ1 receptors (Mus musculus, UniProt O55242); assay: In vitro σ1 receptor binding, [^3H]; set-up: species or system CD-1 mouse; details: for Selectivity Ki Ratio σ2/σ1: CD-1 mouse whole brain membranes
[2] = molecular target: T2, σ2 receptors (Mus musculus, UniProt Q8VD00); assay: In vitro σ2 receptor binding, [^3H]DTG/; set-up: species or system CD-1 mouse
T2 sequence (Q8VD00 1-176): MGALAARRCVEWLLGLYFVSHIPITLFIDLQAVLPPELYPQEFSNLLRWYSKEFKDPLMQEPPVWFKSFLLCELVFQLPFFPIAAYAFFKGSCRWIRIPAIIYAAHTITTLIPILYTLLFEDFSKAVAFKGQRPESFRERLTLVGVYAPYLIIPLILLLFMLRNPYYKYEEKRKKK

[3] = molecular target: striatal dopamine transporters (DAT) (Mus musculus, UniProt Q61327); assay: In vivo DAT occupancy: inhibition of [^125I]RTI-121 specific binding in striatum; set-up: species or system CD-1 mice; details: for Inhibition of striatal [^125I]RTI-121 specific binding: 10.0 μmol/kg i.p.
[4] = tested on: CD-1 mice; assay: Locomotor activity: basal and; format: in vivo; details: for Effect on basal locomotor activity: i.p., E-IA-DM-PE-PIPZE up to 3.16 μmol/kg, BD1063 3.16 and 31.6 μmol/kg, 60 min
[5] = molecular target: T1, σ1 receptors; details: ref Lever et al., cited from earlier work
[6] = molecular target: DAT; details: cited from earlier work
[7] = tested on: Swiss Webster mice; details: doses as low as 0.1 mg/kg (0.29 μmol/kg); ref Matsumoto et al., 2001a; cited from earlier work
[8] = molecular target: σ2 receptors; details: read-out: Ki for σ2 receptors; ref Kovács and Larson (1995); cited from earlier work
[9] = molecular target: σ1 receptors; details: read-out: σ1 Ki, ref Lever et al., cited from earlier work
[10] = molecular target: T1, σ1 receptors; format: in vivo, CD-1 mice; details: for Occupancy of cerebral σ1 receptors: in the absence of (−)-cocaine
[11] = molecular target: T1, σ1 receptors; details: read-out: Kd for σ1 sites in mouse brain membranes; ref Lever et al., 2012; cited from earlier work
[12] = molecular target: T1, σ1 receptors; format: in vivo, CD-1 mice; details: saline control, 60 min
[13] = ref Lever et al., 2012, 2014a, 2015; cited from earlier work
[14] = ref Fowler et al., 2007; cited from earlier work
[15] = tested on: striatal DAT; details: Swiss Webster strain; ref Desai and colleagues (2005); cited from earlier work
[16] = tested on: mice; details: cited from earlier work
[17] = 3.0 nM [^3H](+)pentazocine, 37 °C, 180 min
[18] = read-out: Sigma1 IC50, 3.0 nM [^3H](+)pentazocine, 37 °C, 180 min
[19] = 3.0 nM [^3H]DTG/500 nM (+)pentazocine, 25 °C, 60 min
[20] = read-out: Sigma2 IC50, 3.0 nM [^3H]DTG/500 nM (+)pentazocine, 25 °C, 60 min
[21] = ligand i.p. 1 min prior to radioligand, 30 min, unconstrained fit
[22] = homologous saturation, 25 °C, 60 min, two-site model
[23] = 2.5 μCi i.v., 60 min, non-specific defined by BD1063

T1 sequence (O55242 whole entry): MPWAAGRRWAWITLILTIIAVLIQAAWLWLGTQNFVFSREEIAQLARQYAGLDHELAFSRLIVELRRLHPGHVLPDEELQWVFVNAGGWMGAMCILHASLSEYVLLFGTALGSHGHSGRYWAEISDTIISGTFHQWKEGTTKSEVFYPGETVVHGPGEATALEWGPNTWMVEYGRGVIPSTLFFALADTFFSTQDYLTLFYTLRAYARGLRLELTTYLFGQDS
Chain of striatal dopamine transporters (DAT) (Q61327 whole entry): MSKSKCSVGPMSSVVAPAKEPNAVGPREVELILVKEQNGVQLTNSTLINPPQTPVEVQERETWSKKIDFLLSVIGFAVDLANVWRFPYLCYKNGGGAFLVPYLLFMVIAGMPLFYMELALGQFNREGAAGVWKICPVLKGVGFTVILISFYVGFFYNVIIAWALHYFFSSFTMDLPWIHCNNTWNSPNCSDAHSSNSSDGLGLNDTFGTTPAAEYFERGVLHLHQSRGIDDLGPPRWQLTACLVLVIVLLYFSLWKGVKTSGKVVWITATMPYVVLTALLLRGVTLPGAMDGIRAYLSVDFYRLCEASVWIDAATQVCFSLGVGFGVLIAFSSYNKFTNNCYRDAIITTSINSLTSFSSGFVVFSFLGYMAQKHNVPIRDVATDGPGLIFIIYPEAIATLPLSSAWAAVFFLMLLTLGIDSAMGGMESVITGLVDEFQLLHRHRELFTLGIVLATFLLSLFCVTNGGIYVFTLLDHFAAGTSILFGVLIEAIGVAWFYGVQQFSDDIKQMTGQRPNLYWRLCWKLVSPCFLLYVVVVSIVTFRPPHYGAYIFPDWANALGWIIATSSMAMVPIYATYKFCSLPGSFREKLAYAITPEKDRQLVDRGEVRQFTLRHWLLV

Compound: C=CCN1CCC2(C)c3cc(O)ccc3CC1C2C (single isomer, unassigned; (+)) [(+)-NANM, (+)-N-allylnormetazocine]
- Sigma1 nH [1, 17]: 1.06 ± 0.11
- Selectivity Ki Ratio σ2/σ1 [1]: 608
- IC50 [1, 18]: 20.6 ± 1.14 nM
- Ki ([1]; read-out: Sigma1 Ki): 13.3 ± 0.74 nM
- Sigma2 nH [2, 19]: 0.98 ± 0.12
- IC50 [2, 20]: 8990 ± 850 nM

Compound: C=CCN1CCC2(C)c3cc(O)ccc3CC1C2C (single isomer, unassigned; (-)) [(−)-NANM, (−)-N-allylnormetazocine]
- Sigma1 nH [1, 17]: 1.09 ± 0.08
- Selectivity Ki Ratio σ2/σ1 [1]: 2.6
- IC50 [1, 18]: 3980 ± 600 nM
- Ki ([1]; read-out: Sigma1 Ki): 2550 ± 383 nM
- Sigma2 nH [2, 19]: 0.93 ± 0.08
- IC50 [2, 20]: 7460 ± 469 nM

Compound: CC(C)=CCN1CC[C@]2(C)c3cc(O)ccc3C[C@H]1[C@H]2C [(+)-Pentazocine, (+)-pentazocine]
- Sigma1 nH [1, 17]: 1.09 ± 0.03

Compound: CN1CCN(CCc2ccc(Cl)c(Cl)c2)CC1 [BD1063, 1-[2-(3,4-dichlorophenyl)ethyl]-4-methylpiperazine]
- Inhibition of striatal [^125I]RTI-121 specific binding [3]: did not inhibit
- Increase of (−)-cocaine-induced hyperactivity ([4]; 3.16 μmol/kg i.p., not statistically significant): 17%
- Decrease of (−)-cocaine-induced hyperactivity ([4]; 31.6 μmol/kg i.p., not statistically significant): 19%
- Effect on basal locomotor activity [4]: did not significantly affect basal activity
- Affinity for σ1 receptors relative to (−)-cocaine (higher) [1]: ~200 fold
- Affinity for σ1 receptors relative to PD144418 (lower) [1]: 30 fold
- IC50 [1]: 9.68 ± 1 nM
- Ki [1]: 5.98 ± 0.62 nM
- Sigma1 nH [1, 17]: 1.17 ± 0.08
- Selectivity Ki Ratio σ2/σ1 [1]: 127
- IC50 [2]: 843 ± 104 nM
- Ki [2]: 762 ± 94 nM
- Sigma2 nH [2, 19]: 0.96 ± 0.13
- Occupancy of cerebral σ1 receptors ([5]; doses ≥ 3.16 μmol/kg, in the absence of (−)-cocaine, 2014b): ≥ 89%
- ED50 for σ1 occupancy, brain ([5]; same protocol, 2014b): 0.62 µmol/kg
- ED50 for σ1 occupancy, heart ([5]; same protocol, 2014b): 0.14 µmol/kg
- ED50 for σ1 occupancy, lung ([5]; same protocol, 2014b): 0.20 µmol/kg
- ED50 for σ1 occupancy, spleen ([5]; same protocol, 2014b): 1.47 µmol/kg
- Ki ([6]; read-out: Ki for the DAT (apparent affinity), ref Garcés-Ramírez et al., 2011): 8000 nM
- Protection from (−)-cocaine-induced convulsions [7]: protect

Compound: Cc1ccccc1NC(=N)Nc1ccccc1C [DTG, 1,3-di(2-tolyl)guanidine]
- IC50 [1]: 173 ± 19.9 nM
- Ki [1]: 112 ± 12.9 nM
- Sigma1 nH [1, 17]: 0.91 ± 0.14
- Sigma2 nH [2, 19]: 0.88 ± 0.05

Compound: COc1ccc2c(c1)[C@]13CCCC[C@@H]1[C@H](C2)N(C)CC3 [Dextromethorphan, dextromethorphan hydrobromide]
- IC50 [1]: 97.5 ± 6.9 nM
- Ki [1]: 63.1 ± 4.5 nM
- Sigma1 nH [1, 17]: 0.88 ± 0.07
- IC50 [2]: 30000 ± 2820 nM
- Ki [2]: 26800 ± 2530 nM
- Ki [8]: 1740 nM
- Ki [9]; 2015: 63 nM

Compound: COc1ccc(CCN2CCN(C/C=C/I)CC2)cc1OC [E-IA-DM-PE-PIPZE, E-N-1-(3′-iodoallyl)-N′-4-(3″,4″-dimethoxyphenethyl)-piperazine]
- Occupancy of cerebral σ1 receptors ([10]; 0.316 μmol/kg i.p.): 58%
- Occupancy of cerebral σ1 receptors ([10]; 3.16 μmol/kg i.p.): 86%
- ED50 for σ1 occupancy, brain [10, 21]: 0.23 µmol/kg
- ED50 for σ1 occupancy, heart [10, 21]: 0.03 µmol/kg
- ED50 for σ1 occupancy, lung [10, 21]: 0.08 µmol/kg
- ED50 for σ1 occupancy, spleen [10, 21]: 0.35 µmol/kg
- Inhibition of striatal [^125I]RTI-121 specific binding [3]: did not affect radioligand binding; also recorded: No inhibition
- Effect on basal locomotor activity [4]: do not significantly; also recorded: not affected
- Sigma1 nH [1, 17]: 0.98 ± 0.07
- Selectivity Ki Ratio σ2/σ1 [1]: 215
- IC50 [1, 18]: 10.4 ± 1.39 nM
- Ki ([1]; read-out: Sigma1 Ki): 6.73 ± 0.9 nM
- Sigma2 nH [2, 19]: 0.98 ± 0.08
- IC50 [2, 20]: 1600 ± 243 nM
- Ki ([6]; read-out: Ki for the DAT in vitro, ref Lever et al., 2012): > 10000 nM

Compound: Fc1ccc(C(OCCN2CCN(CCCc3ccccc3)CC2)c2ccc(F)cc2)cc1 [GBR12909, 1-{2-[bis-(4-fluorophenyl)methoxy]ethyl}-4-(3-phenylpropyl)piperazine]
- inhibition at 10 µmol/kg ([3]; mouse, iv, read-out: Inhibition of specific [^125I]RTI-121 binding): 75%

Compound: CC(C(O)c1ccc(O)cc1)N1CCC(Cc2ccccc2)CC1 (stereo not drawn) [Ifenprodil, ifenprodil (+)-tartrate]
- IC50 [1]: 35 ± 0.95 nM
- Ki [1]: 22.7 ± 0.61 nM
- Sigma1 nH [1, 17]: 1.08 ± 0.06
- Selectivity Ki Ratio σ2/σ1 [1]: 0.1
- IC50 [2]: 2.69 ± 0.36 nM
- Ki [2]: 2.43 ± 0.32 nM
- Sigma2 nH [2, 19]: 0.70 ± 0.07

Compound: CCCN1CCC=C(c2cc(-c3ccc(C)cc3)no2)C1 [PD144418]
- σ1 receptor occupancy threshold for significant behavioral effects ([5]; 2014a): 80%
- Ki ([9]; 2014a): 0.19 nM

Compound: CC(C)=CCN1CC[C@]2(C)c3cc(O)ccc3C[C@H]1[C@H]2C [[^3H](+)-Pentazocine]
- Maximal site density (Bmax), σ1 receptors ([1]; saturation binding, 37 °C, 180 min): 538 ± 30 fmol/mg protein and 538 fmol/mg protein

Compound: Cc1ccccc1NC(=N)Nc1ccccc1C [[^3H]DTG]
- Bmax, high affinity, low capacity site (σ2 receptor) [2, 22]: 711 ± 81 fmol/mg protein
- Bmax, low affinity, high capacity site [2, 22]: 21307 ± 7059 fmol/mg protein

Compound: COc1ccc(CCN2CCN(C/C=C/I)CC2)cc1OC [[^125I]E-IA-DM-PE-PIPZE, [^125I]E-N-1-(3′-iodoallyl)-N′-4-(3″,4″-dimethoxyphenethyl)-piperazine]
- Kd [11]: 3.79 nM

Compound: COc1ccc(CCN2CCN(C/C=C/[125I])CC2)cc1OC [[^125I]E-IA-DM-PE-PIPZE, [^125I]E-N-1-(3′-iodoallyl)-N′-4-(3″,4″-dimethoxyphenethyl)-piperazine]
- Control specific binding to σ1 receptors, brain [10, 23]: 83%
- Control specific binding to σ1 receptors, heart [10, 23]: 53%
- Control specific binding to σ1 receptors, lung [10, 23]: 66%
- Control specific binding to σ1 receptors, spleen [10, 23]: 71%
- Specific Binding [^125I]E-IA-DM-PE-PIPZE, Control ([12]; Caudate-putamen): 1.96 ± 0.07 fmol/mg tissue
- Specific Binding [^125I]E-IA-DM-PE-PIPZE, Control ([12]; Cortex, Cingulate): 2.69 ± 0.20 fmol/mg tissue
- Specific Binding [^125I]E-IA-DM-PE-PIPZE, Control ([12]; Cortex, Entorhinal): 2.52 ± 0.09 fmol/mg tissue
- Specific Binding [^125I]E-IA-DM-PE-PIPZE, Control ([12]; Cortex, Frontal): 2.99 ± 0.19 fmol/mg tissue
- Specific Binding [^125I]E-IA-DM-PE-PIPZE, Control ([12]; Cortex, Parietal): 3.12 ± 0.14 fmol/mg tissue
- Specific Binding [^125I]E-IA-DM-PE-PIPZE, Control ([12]; Cortex, Temporal): 2.93 ± 0.16 fmol/mg tissue
- Specific Binding [^125I]E-IA-DM-PE-PIPZE, Control ([12]; Diencephalon, Thalamic nuclei): 2.94 ± 0.10 fmol/mg tissue
- Specific Binding [^125I]E-IA-DM-PE-PIPZE, Control ([12]; Diencephalon, Thalamus): 2.57 ± 0.13 fmol/mg tissue
- Specific Binding [^125I]E-IA-DM-PE-PIPZE, Control ([12]; Hippocampus, CA1 pyramidal): 2.25 ± 0.12 fmol/mg tissue
- Specific Binding [^125I]E-IA-DM-PE-PIPZE, Control ([12]; Hippocampus, CA2 pyramidal): 2.87 ± 0.13 fmol/mg tissue
- Specific Binding [^125I]E-IA-DM-PE-PIPZE, Control ([12]; Hippocampus, CA3 pyramidal): 3.34 ± 0.10 fmol/mg tissue
- Specific Binding [^125I]E-IA-DM-PE-PIPZE, Control ([12]; Hippocampus, Dentate Gyrus): 3.27 ± 0.08 fmol/mg tissue
- Specific Binding [^125I]E-IA-DM-PE-PIPZE, Control ([12]; Hippocampus, Nonpyramidal): 1.84 ± 0.08 fmol/mg tissue
- Specific Binding [^125I]E-IA-DM-PE-PIPZE, Control ([12]; Mesencephalon, Inferior Colliculi): 3.50 ± 0.20 fmol/mg tissue
- Specific Binding [^125I]E-IA-DM-PE-PIPZE, Control ([12]; Mesencephalon, Periaqueductal Gray): 4.07 ± 0.13 fmol/mg tissue
- Specific Binding [^125I]E-IA-DM-PE-PIPZE, Control ([12]; Mesencephalon, Superior Colliculi): 3.50 ± 0.14 fmol/mg tissue
- Specific Binding [^125I]E-IA-DM-PE-PIPZE, Control ([12]; Metencephalon, Cerebellum (whole)): 3.18 ± 0.08 fmol/mg tissue
- Specific Binding [^125I]E-IA-DM-PE-PIPZE, Control ([12]; Metencephalon, Granular layer): 4.13 ± 0.20 fmol/mg tissue
- Specific Binding [^125I]E-IA-DM-PE-PIPZE, Control ([12]; Metencephalon, Molecular layer): 2.38 ± 0.08 fmol/mg tissue
- Specific Binding [^125I]E-IA-DM-PE-PIPZE, Control ([12]; White Matter, Corpus callosum): 1.99 ± 0.06 fmol/mg tissue
- Selectivity for binding to σ1 over σ2 receptors ([1]; from Table II): 200 fold
- Metabolic stability [13]: excellent metabolic stability

Compound: (−)-Cocaine hydrochloride
- Log D7.4 [14]: 1.31
- ED50 for displacement of striatal binding [15]: 38 µmol/kg
- ED50 for maximum stimulatory effects on locomotor activity ([16]; CD-1 mice, 3 h period, ref Thomsen and Caine (2011)): 18.2 mg/kg
- ED50 for maximum stimulatory effects on locomotor activity ([16]; CD-1 mice, first hour, ref Carroll et al. (2004)): 10 mg/kg
- ED50 for maximum stimulatory effects on locomotor activity ([16]; Swiss Webster mice, 3 h period, ref Thomsen and Caine (2011)): 9.7 mg/kg
